Type in all cases: functional
For test [1], the system named is Rotala indica. The test can be described thus: Herbicidal activity against Rotala indica assessed as killing at 800 g/10 acre measured after 3 weeks by pre-emergence/paddy application test.
For test [2], the system named is Schoenoplectiella juncoides. Nature of the test: Herbicidal activity against Schoenoplectiella juncoides assessed as killing at 800 g/10 acre measured after 3 weeks by pre-emergence/paddy application test.
Test [3] deals with Pontederia vaginalis. Nature of the test: Herbicidal activity against Monochoria vaginalis assessed as killing at 800 g/10 acre measured after 3 weeks by pre-emergence/paddy application test.
The subject of test [4] is Echinochloa oryzicola. Nature of the test: Herbicidal activity against Echinochloa oryzicola assessed as killing at 800 g/10 acre measured after 3 weeks by pre-emergence/paddy application test.
The subject of test [5] is Chenopodium album. Nature of the test: Herbicidal activity against Chenopodium album assessed as killing at 800 g/10 acre measured after 3 weeks by pre-emergence/field application test.
Test [6] concerns Stellaria media. Nature of the test: Herbicidal activity against Stellaria media assessed as killing at 800 g/10 acre measured after 3 weeks by pre-emergence/field application test.
The test system of test [7] is Digitaria ciliaris. The test can be described thus: Herbicidal activity against Digitaria ciliaris assessed as killing at 800 g/10 acre measured after 3 weeks by pre-emergence/field application test.
The test system of test [8] is Echinochloa crus-galli. Nature of the test: Herbicidal activity against Echinochloa crus-galli (barnyard grass) assessed as killing at 800 g/10 acre measured after 3 weeks by pre-emergence/field application test.
Test [9] has as its system Chenopodium album. Nature of the test: Herbicidal activity against Chenopodium album assessed as killing at 400 g/10 acre measured after 3 weeks by post-emergence/foliar application test.
For test [10], the system named is Digitaria ciliaris. Nature of the test: Herbicidal activity against Digitaria ciliaris assessed as killing at 400 g/10 acre measured after 3 weeks by post-emergence/foliar application test.
The subject of test [11] is Echinochloa crus-galli. Nature of the test: Herbicidal activity against Echinochloa crus-galli (barnyard grass) assessed as killing at 400 g/10 acre measured after 3 weeks by post-emergence/foliar application test.
The test system of test [12] is Schoenoplectiella juncoides. Nature of the test: Herbicidal activity against Schoenoplectiella juncoides assessed as killing at 100 g/10 acre measured after 3 weeks by pre-emergence/paddy application test.
Test [13] deals with Pontederia vaginalis. Nature of the test: Herbicidal activity against Monochoria vaginalis assessed as killing at 100 g/10 acre measured after 3 weeks by pre-emergence/paddy application test.
The subject of test [14] is Echinochloa oryzicola. The test can be described thus: Herbicidal activity against Echinochloa oryzicola assessed as killing at 100 g/10 acre measured after 3 weeks by pre-emergence/paddy application test.
Test [15] relates to Stellaria media. Nature of the test: Herbicidal activity against Stellaria media assessed as killing at 100 g/10 acre measured after 3 weeks by pre-emergence/field application test.
The subject of test [16] is Digitaria ciliaris. Nature of the test: Herbicidal activity against Digitaria ciliaris assessed as killing at 100 g/10 acre measured after 3 weeks by pre-emergence/field application test.
The subject of test [17] is Echinochloa crus-galli. Nature of the test: Herbicidal activity against Echinochloa crus-galli (barnyard grass) assessed as killing at 100 g/10 acre measured after 3 weeks by pre-emergence/field application test.
Test [18] has as its system Rotala indica. The test can be described thus: Herbicidal activity against Rotala indica assessed as killing at 100 g/10 acre measured after 3 weeks by pre-emergence/paddy application test.
For test [19], the system named is Chenopodium album. Nature of the test: Herbicidal activity against Chenopodium album assessed as killing at 100 g/10 acre measured after 3 weeks by post-emergence/foliar application test.
For test [20], the system named is Stellaria media. The test can be described thus: Herbicidal activity against Stellaria media assessed as killing at 100 g/10 acre measured after 3 weeks by post-emergence/foliar application test.
Test [21] relates to Digitaria ciliaris. Nature of the test: Herbicidal activity against Digitaria ciliaris assessed as killing at 100 g/10 acre measured after 3 weeks by post-emergence/foliar application test.
Test [22] has as its system Echinochloa crus-galli. The test can be described thus: Herbicidal activity against Echinochloa crus-galli (barnyard grass) assessed as killing at 100 g/10 acre measured after 3 weeks by post-emergence/foliar application test.
Test [23] has as its system Chenopodium album. Nature of the test: Herbicidal activity against Chenopodium album assessed as killing at 100 g/10 acre measured after 3 weeks by pre-emergence/field application test.

Take `Cc1nc(NCCCc2ccccc2)nc(C(F)(F)F)n1`: the Activity in the test on Rotala indica [1] is reported as 51%; in test [2] it was 1%; in the test with Pontederia vaginalis [3], 51%; in the test with Echinochloa oryzicola [4], 1%; with Chenopodium album [5] it was 76%; in the test with Stellaria media [6] it was 100%. Also, the Activity in the test with Digitaria ciliaris [7] is recorded as 100%; in the test on Echinochloa crus-galli [8], 76%; in the test on Chenopodium album [9], 100%; in the test with Digitaria ciliaris [10], 76%; in the test with Echinochloa crus-galli [11] it was 91%.

In the case of `Cc1nc(NCCc2ccccc2)nc(C(F)(F)F)n1`, the Activity in the test on Rotala indica [1] is 91%; in test [2] it was 26%; in the test on Pontederia vaginalis [3], 76%; in the test with Echinochloa oryzicola [4] it was 26%; with Chenopodium album [5] it was 91%; in the test with Digitaria ciliaris [7], 76%. Further, the Activity in the test on Echinochloa crus-galli [8] was found to be 51%; in the test with Chenopodium album [9] it was 91%; with Digitaria ciliaris [10], 0%; in the test with Echinochloa crus-galli [11] it was 0%.

For the compound `Cc1nc(NCc2ccc(Br)cc2)nc(C(F)(F)F)n1`, the Activity in test [12] was 76%; with Pontederia vaginalis [13] it was 91%; in the test on Echinochloa oryzicola [14], 51%; with Stellaria media [15], 91%; in the test on Digitaria ciliaris [16] it was 91%; in the test with Echinochloa crus-galli [17] it was 76%. Further, the Activity in the test with Rotala indica [18] worked out at 100%; in the test on Chenopodium album [19], 100%; with Stellaria media [20], 100%; with Digitaria ciliaris [21] it was 100%; in the test with Echinochloa crus-galli [22], 26%; with Chenopodium album [23], 100%.

`Cc1nc(NCc2cccc(Cl)c2)nc(C(F)(F)F)n1`: the Activity in test [12] is on record as 51%; in the test on Pontederia vaginalis [13], 51%; in the test on Echinochloa oryzicola [14] it was 51%; in the test on Digitaria ciliaris [16], 51%; in the test on Echinochloa crus-galli [17] it was 1%; in the test on Rotala indica [18] it was 100%. The Activity in the test with Chenopodium album [19] worked out at 100%; with Stellaria media [20], 100%; in the test with Digitaria ciliaris [21] it was 91%; with Echinochloa crus-galli [22], 51%; in the test with Chenopodium album [23], 76%.

`Cc1nc(NCc2ccc(Cl)cc2)nc(C(F)(F)F)n1`: the Activity in [12] came to 76%; in the test with Pontederia vaginalis [13] it was 100%; in the test with Echinochloa oryzicola [14], 76%; in the test with Stellaria media [15], 91%; with Digitaria ciliaris [16], 91%; in the test on Echinochloa crus-galli [17], 51%. Besides, the Activity is recorded as 91% in the test on Rotala indica [18]; 100% in the test on Chenopodium album [19]; 100% with Stellaria media [20]; 76% in the test with Digitaria ciliaris [21]; 26% with Echinochloa crus-galli [22]; 100% in the test with Chenopodium album [23].

As to `Cc1nc(NCc2ccc(F)cc2)nc(C(F)(F)F)n1`, the Activity in test [12] came out at 51%; in the test on Pontederia vaginalis [13] it was 91%; in the test on Echinochloa oryzicola [14], 76%; with Stellaria media [15], 100%; in the test on Digitaria ciliaris [16] it was 76%; in the test with Echinochloa crus-galli [17] it was 76%. The Activity in the test with Rotala indica [18] was determined as 100%; in the test on Stellaria media [20], 100%; in the test on Digitaria ciliaris [21], 91%; in the test on Echinochloa crus-galli [22] it was 51%; in the test on Chenopodium album [23], 91%.

In the case of `COc1ccc(CNc2nc(C)nc(C(F)(F)F)n2)cc1`, the Activity in test [12] worked out at 1%; with Pontederia vaginalis [13], 51%; with Echinochloa oryzicola [14], 26%; with Stellaria media [15] it was 91%; with Digitaria ciliaris [16], 0%; with Echinochloa crus-galli [17] it was 76%. The Activity was 76% in the test with Rotala indica [18]; 100% in the test with Chenopodium album [19]; 100% with Stellaria media [20]; 26% in the test on Digitaria ciliaris [21]; 26% in the test on Echinochloa crus-galli [22]; 76% with Chenopodium album [23].

Turning to `Cc1nc(NCc2ccc(C(F)(F)F)cc2)nc(C(F)(F)F)n1`, the Activity in test [12] was 51%; in the test with Pontederia vaginalis [13] it was 76%; in the test with Echinochloa oryzicola [14] it was 51%; with Stellaria media [15], 100%; in the test on Digitaria ciliaris [16], 100%; in the test on Echinochloa crus-galli [17] it was 76%. Moreover, the Activity came out at 91% with Rotala indica [18]; 100% in the test with Chenopodium album [19]; 100% in the test on Stellaria media [20]; 100% in the test on Digitaria ciliaris [21]; 1% in the test with Echinochloa crus-galli [22]; 91% with Chenopodium album [23].

Consider `Cc1nc(C)nc(NCc2ccccc2)n1`, for which the Activity in the test on Rotala indica [1] amounted to 1%; in test [2], 0%; in the test with Pontederia vaginalis [3], 100%; with Echinochloa oryzicola [4] it was 51%; with Chenopodium album [5], 0%; with Stellaria media [6], 0%. For the same compound, the Activity with Digitaria ciliaris [7] came to 0%; with Echinochloa crus-galli [8] it was 0%; in the test with Chenopodium album [9], 51%; in the test with Digitaria ciliaris [10], 1%; with Echinochloa crus-galli [11] it was 1%.

`CCc1nc(C)nc(NCc2ccccc2)n1`: the Activity with Rotala indica [1] was found to be 51%; in test [2] it was 1%; in the test with Pontederia vaginalis [3], 51%; in the test with Echinochloa oryzicola [4] it was 76%; in the test on Chenopodium album [5], 51%; in the test on Digitaria ciliaris [7], 0%. Moreover, the Activity with Echinochloa crus-galli [8] was 0%.

`CCCc1nc(C)nc(NCc2ccccc2)n1`: the Activity came to 26% in the test on Rotala indica [1]; 1% in test [2]; 26% with Pontederia vaginalis [3]; 26% in the test on Echinochloa oryzicola [4]; 0% in the test on Chenopodium album [5]; 0% with Stellaria media [6]. For the same compound, the Activity came to 0% in the test with Digitaria ciliaris [7]; 0% in the test with Echinochloa crus-galli [8]; 91% in the test on Chenopodium album [9]; 1% in the test with Digitaria ciliaris [10]; 1% with Echinochloa crus-galli [11].

`Cc1nc(NCc2ccccc2)nc(C(F)(F)F)n1`: the Activity in the test with Rotala indica [1] was determined as 91%; in [2], 76%; in the test on Pontederia vaginalis [3], 100%; in the test with Echinochloa oryzicola [4] it was 76%; in the test with Stellaria media [6] it was 100%; in the test with Digitaria ciliaris [7], 100%. For the same compound, the Activity in the test with Echinochloa crus-galli [8] is listed as 100%; in the test on Chenopodium album [9] it was 100%; in the test with Digitaria ciliaris [10], 76%; in the test on Echinochloa crus-galli [11] it was 51%.

In the case of `CCc1nc(NCc2ccccc2)nc(C(F)(F)F)n1`, the Activity in the test with Rotala indica [1] stood at 91%; in test [2], 100%; with Pontederia vaginalis [3], 100%; in the test on Echinochloa oryzicola [4] it was 91%; with Stellaria media [6], 100%; with Digitaria ciliaris [7], 100%. In addition, the Activity in the test on Echinochloa crus-galli [8] is reported as 51%; with Chenopodium album [9], 51%; with Digitaria ciliaris [10] it was 1%; with Echinochloa crus-galli [11] it was 1%.

For the compound `CCNc1nc(Cl)nc(NC(C)C)n1` [ATRAZINE], the Activity is 100% in the test with Chenopodium album [19], 100% in the test on Stellaria media [20], 0% with Digitaria ciliaris [21] and 26% in the test with Echinochloa crus-galli [22].

As to `CCNc1nc(Cl)nc(NCC)n1` [SIMAZINE], the Activity was 91% in the test on Stellaria media [15], 51% in the test with Digitaria ciliaris [16], 26% with Echinochloa crus-galli [17] and 91% with Chenopodium album [23].
